Experimental data taken from patent publication US20120283327A1, “PHARMACEUTICAL COMPOSITIONS AND THERAPEUTIC APPLICATIONS OF A HYDROCORTISONE DERIVATIVE DESIGNATED AS DEINA” (priority 2009, published 2012).

Assays:
[1] = test system: bioptic animal samples (skin, chondrocyte, mucosal and follicular vitality); test: Optical microscopy of cultured biopsies: cytokeratin 10 and 11 expression and haematoxylin/eosin histology; assay type: cell-based
Protocol: The bioptic animal samples in the investigation comprised biopsies of: • chronic atrophic cutaneous lesions due to venous stasis (base and margins), • damaged joint cartilage (chronic degenerative osteo-articular arthritis), • terminal cicatricial scalp (post-traumatic or surgical lesions), • hyperkeratosis of the oral cavity (vitamin B deficiency).
All the samples were washed three times with physiological saline and antibiotics (100 units/ml of penicillin+100 μg/ml of streptomycin+160 mg/L gentamycin, fluconazole 0.2 mg/ml) for 10 minutes at ambient temperature.
The biopsies were then sectioned into three parts (two controls, 1 and 2, and one sample, 3, to be treated for each patient) and suspended in a final volume of 25 ml of the corresponding culture solutions within 10 cm slides (Lab-Tek chamber slides, Nunc, Kamstrup, Denmark).
Two types of controls were prepared, an untreated negative control (1), that is one treated with physiological saline and antibiotics only (as described above), and a positive control (2) treated with media for ordinary cell culture for skin biopsies.
2. Positive control: Controlled bioptic specimens 2 were placed between 10 cm slides (Lab-Tek chamber slides, Nunc, Kamstrup, Denmark) in D-MEM medium supplemented with:
3. Samples-1 and -2. Bioptic samples 1 and 2 were placed between 10 cm slides (Lab-Tek chamber slides, Nunc, Kamstrup, Denmark) in medium in a solution of Deina® culture medium (double test). […]
Results relating to the expression of cytokeratin 10 and 11 and histological staining of the bioptic preparations with haematoxylin/eosin (used to display skin, chondrocyte, mucosal and follicular vitality) are shown in Table 6 (CONTROLS) and Table 7 (SAMPLES), and have been expressed using a qualitative and semi-quantitative scale. […]
Samples belonging to the type of the Sample treatment group (Deina®). Median semi-quantitative values for incubation days 7 and 60.

bilateral joint changes = assay type: in vivo
Protocol: A clinical trial to evaluate tolerance and efficacy for the compound known as infusional Deina® (composition shown in Table 3) was also performed on a compassionate basis.
Twenty cases (dogs of different breed, size, body weight, sex and age).
The quantity of solution inoculated was equal to the quantity of synovial fluid aspirated and analysed.
a. Time Zero • Collection of case history and clinical examination comprising full blood counts, including LACTATES to check metabolic oxidation, • Radiography of the limb in question, • ROM (Range Of Motion), • Exploratory arthroscopy, • Exclusion of any intra-articular curettage, • Arthrocentesis with removal and morphological/cytological and biochemical examination of the synovial fluid, • Histological examination of a sample of joint cartilage, • Intra-articular inoculation of the solutions tested equal to the quantity of synovial fluid withdrawn and always in the same way (bilateral lesions): of Deina®.
A synovial examination and intra-articular injection of the solution was repeated weekly or for four/eight times, depending on the severity of the initial pathological condition.
b. End of the Treatment Cycle • Arthrocentesis with removal and morphological/cytological and biochemical examination of the synovial fluid, • Histological examination of a sample of joint cartilage, • Radiography of the joint in question, • ROM (Range Of Motion), • Blood lactic acid content, • Clinical examination and recording.

[2] = Deina infusional formulation, intra-articular, weekly four/eight times, 20 dogs

`CC1(CCC(=O)O)C(=O)CCC2C1C(O)CC1(C)C2CCC1(O)C(=O)CO` (stereo not drawn) [Deina®, 3-[3,5-Dihydroxy-3-(2-hydroxy-acetyl)-3a,6-dimethyl-7-oxo-dodecahydro-cyclo-penta[alpha]naphthalen-6-yl]-propionic acid] was tested, and the “cytokeratin 10 and 11 (typical of normal tegument and scalp tissues with vital follicles)” value ([1]; optical microscopy, Table 7 summary) was “net predominance”, the “number of cells (staining with eosin and haematoxylin)” value ([1]; samples treated for two months, versus controls) was “net increase” and the “histological state of the cultured tissue” value ([1]; short term (7 days) up to two months of culture) was “trophic, vital and active”. The “cases in which pain and palpation fell” value (bilateral joint changes; [2]) was 100%, the “cases with clinical improvement” value (bilateral joint changes; [2]) was 70% and the “cases with increased ROM (Range of Motion)” value (bilateral joint changes; [2]) was 90%. For the same molecule, the tolerance (bilateral joint changes; dog, in vivo) was “optimum tolerance”.
